Reference: patent US4035503A, “Xanthene and thioxanthene derivatives, compositions thereof and a method of preparation thereof” (Kefalas A/S, priority 1973, dated 1977)
Like-named read-outs stand apart in the source and are kept apart here.

Tested on: methylphenidate
Assay: Methylphenidate antagonism in mice (antagonism of biting of corrugated paper)
Assay type: in vivo, NMRI male mice
Settings: for ED50: Mus musculus; for ED50 / Methylphenidate antagonism, duration of peak effect: mice; for Methylphenidate antagonism, comparison in words (peak effect and duration): compared within the table, with known substances
Description: The test may briefly be described as follows:
As animals were used NMRI male mice weighting 18-25 grams.
5 × 2 mice are used for each dose level.
[…] At each time interval separate groups of mice were used. After administration of methylphenidate the mice are placed in the observation cages, 2 in each cage, where they remain for one hour. The cages are placed on corrugated paper, the corrugations facing upwards. It is examined whether or not the mice have been biting the corrugated paper. […] At each time interval separate groups of mice were used. The peak effect was determined for the test substances and also for a number of known neuroleptics.
The test was carried out on a number of the novel compounds of Formula I and on a number of closely related thiaxanthene derivatives.

[1] = ip, i.p. test substance, 24 h after administration, read-out: Methylphenidate antagonism, ED50 24 h i.p.
[2] = route p.c. [sic], at peak effect, read-out: Methylphenidate antagonism, Peak effect ED50 p.c.

| SMILES | ED50 [1] [mg/kg] | ED50 [2] [mg/kg] | Methylphenidate antagonism, comparison in words (peak effect and duration) | Methylphenidate antagonism, duration of peak effect (i.p. test substance) [h] |
| --- | --- | --- | --- | --- |
| CN(C)CC=CC1c2ccccc2Sc2ccc(Cl)cc21 (stereo not drawn) [Lu 8-030, 2-Chloro-9-(3-dimethylamino-1-propenyl)-thioxanthene] | > 20 | 5.5 | a more prolonged activity while the peak effect remains at the same level or is somewhat higher | 3 |
| OCCN1CCN(CC=CC2c3ccccc3Sc3ccc(C(F)(F)F)cc32)CC1 (stereo not drawn) [Lu 9-212, 2-Trifluoromethyl-9-(3-(4-(2-hydroxyethyl)-piperazin-1-yl)-1propenyl) thioxanthene] | > 10 | 0.13 | a more prolonged activity while the peak effect remains at the same level or is somewhat higher | 10 |
| OCCN1CCN(CC=CC2c3ccccc3Sc3ccc(Cl)cc32)CC1 (stereo not drawn) [Lu 9-244, 2-Chloro-9-(3-(4-(2-hydroxyethyl)piperazin-1-yl)-1-propenyl) thioxanthene] | 14.1 | 0.22 | a more prolonged activity while the peak effect remains at the same level or is somewhat higher | 10 |
| OCCN1CCN(CC=CC2c3ccc(F)cc3Sc3ccc(C(F)(F)F)cc32)CC1 (stereo not drawn) [Lu 10-153, 2-Trifluoromethyl-6-fluoro-9-(3-(4-(2-hydroxyethyl)piperazine1-yl)-1-propenyl)thioxanthene] | 0.06 | 0.03 | unique in combining at the same time the most potent peak effect but also the long lasting effect | 30 |
| CN(C)CC=CC1c2ccc(F)cc2Sc2ccc(C(F)(F)F)cc21 (stereo not drawn) [Lu 11-186, 2-Trifluoromethyl-6-fluoro-9-(3-dimethylamino-1-propenyl)-thioxanthene] |  | 0.08 |  | 8 |
| OCCC1CCN(CC=CC2c3ccc(F)cc3Oc3ccc(C(F)(F)F)cc32)CC1 (stereo not drawn) [Lu 11-200, 2-Trifluoromethyl-6-fluoro-9-(3-(4-(2-hydroxyethyl)piperidin-1-yl)-1-propenyl) xanthene] | 1.6 | 0.2 |  | 17 |
| OCCC1CCN(CC=CC2c3ccc(F)cc3Sc3ccc(C(F)(F)F)cc32)CC1 (stereo not drawn) [Lu 12-001] | 0.1 | 0.2 |  | 72 |
| CN(C)CC/C=C1/c2ccccc2Sc2ccc(Cl)cc21 [α-chlorprothixen, trans-9-(3-dimethylaminopropylidene)-2-chloro-thioxanthene, reference compound] | > 20 | 2.6 |  | 2 |
| OCCN1CCN(CC/C=C2/c3ccccc3Sc3ccc(Cl)cc32)CC1 [α-clopenthixol, 9-[3-(4-(2-hydroxyethyl)piperazinyl-(1))-propylidene]-2-chloro-thioxanthene, reference compound] | > 20 | 1.3 |  | 6 |
| OCCN1CCN(CC/C=C2/c3ccccc3Sc3ccc(C(F)(F)F)cc32)CC1 [α-flupenthixol, 9-[3-(4-(2-hydroxyethyl)piperazinyl-(1))-propylidene]-2-trifluoromethyl-thioxanthene, reference compound] | > 20 | 0.22 |  | 6 |
